Data: US8431564B2 (Merck Sharp & Dohme B.V., priority 2009, dated 2013)

biological target: T1, human FSH receptor (Homo sapiens, UniProt P23945); experiment: Agonistic activity at the human FSH receptor expressed in CHO cells (CRE-luciferase reporter); format: cell-based; details: CHO cells stably transfected with human FSH receptor and CRE/luciferase reporter; 4 hours incubation; pEC50 is -log EC50; read-out: hFSHRago (CHO luc) pEC50 (converted)
T1 construct: expressed in transfected cells; host or cells: CHO (Chinese Hamster Ovary) cells, stably transfected, cotransfected with CRE-luciferase reporter
T1 sequence (P23945 18-695): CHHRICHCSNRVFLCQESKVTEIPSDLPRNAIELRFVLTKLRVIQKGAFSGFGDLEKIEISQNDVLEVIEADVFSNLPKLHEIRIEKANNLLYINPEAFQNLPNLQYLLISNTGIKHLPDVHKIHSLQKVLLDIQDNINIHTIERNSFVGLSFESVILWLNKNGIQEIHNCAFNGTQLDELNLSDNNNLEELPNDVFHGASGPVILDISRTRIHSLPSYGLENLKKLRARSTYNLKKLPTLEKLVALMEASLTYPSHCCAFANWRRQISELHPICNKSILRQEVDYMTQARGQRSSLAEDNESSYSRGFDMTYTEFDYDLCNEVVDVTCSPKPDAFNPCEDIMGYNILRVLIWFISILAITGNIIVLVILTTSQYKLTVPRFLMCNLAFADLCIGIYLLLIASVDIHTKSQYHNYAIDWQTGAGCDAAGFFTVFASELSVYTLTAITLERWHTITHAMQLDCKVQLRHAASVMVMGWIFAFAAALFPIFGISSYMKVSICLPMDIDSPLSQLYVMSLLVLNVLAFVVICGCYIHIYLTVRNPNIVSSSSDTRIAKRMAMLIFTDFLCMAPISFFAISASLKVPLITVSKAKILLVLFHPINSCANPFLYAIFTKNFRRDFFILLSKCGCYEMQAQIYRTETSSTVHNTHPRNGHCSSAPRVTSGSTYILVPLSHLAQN
How it was run: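 Stably transfected CHO cells with CRE-driven firefly luciferase reporter, incubated 4 h at 37° C. with compound (0.0316 nM–10.0 μM, duplicate, 1% DMSO final) in insulin/transferrin-supplemented medium. Luminescence after lysis; EC50 relative to compound's own maximum, efficacy as percent of recombinant human FSH maximum.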

Row | EC50 | SMILES
1 | 30.2 nM | COc1cc2c(cc1F)-c1c(-c3cccs3)c3c(n1CC2)C(=O)N(C(C)(C)C)CCCC3 [Compound 27c, 9-tert-butyl-2-fluoro-3-methoxy-14-(thiophen-2-yl)-5,6,10,11,12,13-hexahydroazocino[4′,3′:4,5]pyrrolo[2,1-a]isoquinolin-8(9H)-one]
2 | 2.63 nM | COc1cc2c(cc1C(=O)CC[C@@H](O)CO)-c1c(-c3cccs3)c3c(n1CC2)C(=O)N(C(C)(C)C)CCCC3 [Compound 28b, (R)-9-tert-butyl-2-(4,5-dihydroxypentanoyl)-3-methoxy-14-(thiophen-2-yl)-5,6,10,11,12,13-hexahydroazocino[4′,3′:4,5]pyrrolo[2,1-a]isoquinolin-8(9H)-one]
3 | 1.95 nM | COc1cc2c(cc1NS(C)(=O)=O)-c1c(-c3cccs3)c3c(n1CC2)C(=O)N(C(C)(C)C)CCCC3 [Compound 29a, 9-tert-butyl-3-methoxy-2-(methylsulfonamido)-14-(thiophen-2-yl)-5,6,10,11,12,13-hexahydroazocino[4′,3′:4,5]pyrrolo[2,1-a]isoquinolin-8(9H)-one]

Continued, compound first:

Row | SMILES | EC50
4 | COc1cc2c(cc1C(=O)N1CCOCC1)-c1c(-c3cccs3)c3c(n1CC2)C(=O)N(C(C)(C)C)CCCC3 [Compound 26c4, 9-tert-butyl-3-methoxy-2-(4-morpholinylcarbonyl)-14-(thiophen-2-yl)-5,6,10,11,12,13-hexahydroazocino[4′,3′:4,5]pyrrolo[2,1-a]isoquinolin-8(9H)-one] | 9.77 nM
5 | COc1cc2c(cc1C(=O)NCC(O)CO)-c1c(-c3cccs3)c3c(n1CC2)C(=O)N(C(C)(C)C)CCCC3 (stereo not shown) [Compound 26c5, 9-tert-butyl-3-methoxy-2-(2,3-dihydroxy-1-propylaminocarbonyl)-14-(thiophen-2-yl)-5,6,10,11,12,13-hexahydroazocino[4′,3′:4,5]pyrrolo[2,1-a]isoquinolin-8(9H)-one] | 0.871 nM
6 | COCC(O)CNC(=O)c1cc2c(cc1OC)CCn1c3c(c(-c4cccs4)c1-2)CCCCN(C(C)(C)C)C3=O (stereo not shown) [Compound 26c6, 9-tert-butyl-3-methoxy-2-(2-hydroxy-3-methoxy-1-propylaminocarbonyl)-14-(thiophen-2-yl)-5,6,10,11,12,13-hexahydroazocino[4′,3′:4,5]pyrrolo[2,1-a]isoquinolin-8(9H)-one] | 1.07 nM
7 | COc1cc2c(cc1C(=O)NCCO)-c1c(-c3cccs3)c3c(n1CC2)C(=O)N(C(C)(C)C)CCCC3 [Compound 26c7, 9-tert-butyl-2-(2-hydroxyethylaminocarbonyl)-3-methoxy-14-(thiophen-2-yl)-5,6,10,11,12,13-hexahydroazocino[4′,3′:4,5]pyrrolo[2,1-a]isoquinolin-8(9H)-one] | 0.427 nM
8 | COc1cc2c(cc1C(=O)N(C)CCO)-c1c(-c3cccs3)c3c(n1CC2)C(=O)N(C(C)(C)C)CCCC3 [Compound 26c8, 9-tert-butyl-2-(N-2-hydroxyethyl,N-methylaminocarbonyl)-3-methoxy-14-(thiophen-2-yl)-5,6,10,11,12,13-hexahydroazocino[4′,3′:4,5]pyrrolo[2,1-a]isoquinolin-8(9H)-one] | 5.37 nM
9 | C=CCCNC(=O)c1cc2c(cc1OC)CCn1c3c(c(-c4cccs4)c1-2)CCCCN(C(C)(C)C)C3=O [Compound 26c9, 9-tert-butyl-2-(4-butenylaminocarbonyl)-3-methoxy-14-(thiophen-2-yl)-5,6,10,11,12,13-hexahydroazocino[4′,3′:4,5]pyrrolo[2,1-a]isoquinolin-8(9H)-one] | 0.468 nM
10 | COc1cc2c(cc1C(=O)NCCC(O)CO)-c1c(-c3cccs3)c3c(n1CC2)C(=O)N(C(C)(C)C)CCCC3 (stereo not shown) [Compound 26c10, 9-tert-butyl-2-(3,4-dihydroxybutylaminocarbonyl)-3-methoxy-14-(thiophen-2-yl)-5,6,10,11,12,13-hexahydroazocino[4′,3′:4,5]pyrrolo[2,1-a]isoquinolin-8(9H)-one] | 1.95 nM
